Data on 11 molecules can be found in ChEMBL document CHEMBL1201862, “PubChem BioAssay data set” (2004).

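Grown in 96-well plates, cells were treated for 48 hours with each compound at five concentrations. Insufficient inhibition: endpoint recorded as highest concentration tested. Here, GI50 denotes the concentration required for 50% inhibition of growth.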 Active and inactive are the calls of the source. No stated cut-off is given here; in the data, active = GI50 up to about 1.1 µM and inactive = higher.

Test systems include NCI-H226; NCI-H23; K562; SR; HCT-116; Malme-3M; SK-MEL-28; M14; ACHN; SN12C; UACC-257; SF-268; U-251; SNB-19; OVCAR-4; NCI-H522; HT-29; SK-MEL-5; HOP-92.
Experiment in all cases: NCI anticancer screen, dose series, 48 h

In the case of `COC(=O)/C(=C\c1ccc(N(CCC#N)CCC#N)cc1)NC(=O)c1cc([N+](=O)[O-])ccc1Cl`, the GI50 in the assay with NCI-H226 was > 100 µM (inactive); in the assay on NCI-H23 it was > 100 µM (inactive); with K562 it was > 100 µM (inactive); in the assay on SR, 30.5 µM (inactive); with HCT-116 it was > 100 µM (inactive); with Malme-3M it was > 100 µM (inactive). The GI50 in the assay on SK-MEL-28, with M14, in the assay with ACHN, in the assay on SN12C, with UACC-257 and with SF-268 was > 100 µM (inactive) throughout. For the same molecule, the GI50 in the assay with U-251, in the assay on SNB-19, in the assay with OVCAR-4, with NCI-H522, in the assay on HT-29 and with SK-MEL-5 was > 100 µM (inactive) each time.

For `Clc1ccc(CCN2CCOCC2)c(Cl)c1`, the GI50 in the assay on NCI-H23, in the assay with HOP-92, in the assay on K562, with SR, in the assay with HCT-116 and in the assay on Malme-3M was > 100 µM (inactive) throughout. Besides, the GI50 in the assay on SK-MEL-28, with M14, in the assay with ACHN, in the assay with SN12C, in the assay on UACC-257 and in the assay on SF-268 was > 100 µM (inactive) throughout. For the same molecule, the GI50 with U-251, in the assay with SNB-19, in the assay with OVCAR-4, in the assay with NCI-H522, with HT-29 and with SK-MEL-5 was > 100 µM (inactive) each time.

As for `COC(=O)C12C(=O)O[C@H](C)C1(O)C(C)C(=O)N2C` (stereo partly drawn), the GI50 in the assay on NCI-H23 is > 100 µM (inactive); in the assay on HOP-92, < 0.01 µM (active); in the assay on K562, > 100 µM (inactive); in the assay on SR it was > 100 µM (inactive); in the assay on HCT-116 it was > 100 µM (inactive); with Malme-3M, > 100 µM (inactive). The GI50 in the assay on SK-MEL-28, in the assay on M14, in the assay with U-251, in the assay with SNB-19, in the assay on OVCAR-4 and in the assay on HT-29 was > 100 µM (inactive) throughout. The GI50 in the assay with SK-MEL-5 is > 100 µM (inactive).

With `CC1=NN(C(=O)Nc2ccc(Cl)cc2)C(=O)C2CCC(=O)N12` (stereo not drawn), the GI50 in the assay on NCI-H23 is 74.1 µM (inactive); with HOP-92, > 100 µM (inactive); in the assay with K562, 3.19 µM (inactive); in the assay with SR, > 100 µM (inactive); in the assay with HCT-116, > 100 µM (inactive); with SK-MEL-28 it was > 100 µM (inactive). The GI50 in the assay on M14 was > 100 µM (inactive); with ACHN it was 5.73 µM (inactive); in the assay on SN12C, > 100 µM (inactive); in the assay on UACC-257, 49.3 µM (inactive); in the assay on SF-268, 45.3 µM (inactive); in the assay with U-251, > 100 µM (inactive). The GI50 is > 100 µM (inactive) in the assay with SNB-19, 72.8 µM (inactive) with OVCAR-4 and 87.3 µM (inactive) in the assay with SK-MEL-5.

Take `N=c1oc2ccc(Cl)cc2cc1C(N)=O`: the GI50 in the assay with NCI-H226 is 28.2 µM (inactive); in the assay on NCI-H23, 22.4 µM (inactive); in the assay on HOP-92 it was 36 µM (inactive); in the assay with K562 it was > 100 µM (inactive); in the assay on SR it was 65.3 µM (inactive); with HCT-116, 21.2 µM (inactive). The GI50 in the assay with Malme-3M is 17.6 µM (inactive); with SK-MEL-28, 29 µM (inactive); in the assay with M14 it was 27.5 µM (inactive); in the assay with ACHN it was 24.4 µM (inactive); in the assay with SN12C, 18.8 µM (inactive); with UACC-257, 45.4 µM (inactive). Moreover, the GI50 in the assay on SF-268 was 26.3 µM (inactive); in the assay on U-251 it was 40.4 µM (inactive); in the assay with SNB-19, 26.7 µM (inactive); with OVCAR-4, 37.1 µM (inactive); in the assay on HT-29, 38.5 µM (inactive); in the assay on SK-MEL-5, 20.5 µM (inactive).

`CC1=C[C@@H](C)C[C@]2(C)CC[C@H](O2)[C@]23CC[C@](C)(C[C@H](O2)[C@@H]2O[C@@](C)(CC2=O)[C@@H](O)[C@H]2CC[C@@]4(CCC[C@@H](O4)[C@H](C)C(=O)O[C@H]4C[C@H]([C@]5(O)OCC[C@H](C)[C@@H]5O)O[C@H]4C=C1)O2)O3`: the GI50 is 0.00157 µM (active) in the assay on NCI-H226; 0.0118 µM (active) in the assay on NCI-H23; 0.00159 µM (active) in the assay on HOP-92; 0.00692 µM (active) with K562; 0.00157 µM (active) in the assay on SR; 0.00826 µM (active) in the assay with HCT-116. In addition, the GI50 in the assay with Malme-3M is 0.00165 µM (active); in the assay with SK-MEL-28, 0.00173 µM (active); with M14, 0.00527 µM (active); in the assay with ACHN, 0.00473 µM (active); in the assay with UACC-257, 0.0148 µM (active); in the assay with SF-268 it was 0.002 µM (active). The GI50 with U-251 was 0.0146 µM (active); with SNB-19, 0.0244 µM (active); in the assay with OVCAR-4, 0.00344 µM (active); with NCI-H522, 0.0134 µM (active); in the assay with HT-29 it was 0.00226 µM (active); with SK-MEL-5, 0.00148 µM (active).

Take `C1CN2CCN3CCN4CCN1[PH]243`: the GI50 in the assay on NCI-H226, in the assay with NCI-H23, in the assay on K562, in the assay with SR, in the assay on HCT-116 and in the assay on Malme-3M was > 100 µM (inactive) each time. Besides, the GI50 in the assay on SK-MEL-28, in the assay on M14, in the assay on ACHN, with SN12C, with UACC-257 and in the assay with U-251 was > 100 µM (inactive) in each case. The GI50 with SNB-19, with OVCAR-4, in the assay on NCI-H522, in the assay on HT-29 and with SK-MEL-5 was > 100 µM (inactive) in each case.

As for `OC12c3ccccc3C1CCCCC2N1CCCC1` (stereo not drawn), the GI50 is > 100 µM (inactive) in the assay with NCI-H226; > 100 µM (inactive) in the assay with NCI-H23; > 10 µM (inactive) with K562; > 100 µM (inactive) in the assay on SR; > 100 µM (inactive) in the assay with HCT-116; > 100 µM (inactive) in the assay with Malme-3M. Also, the GI50 with SK-MEL-28, in the assay with M14, with ACHN, in the assay on SN12C, in the assay with UACC-257 and in the assay on SF-268 was > 100 µM (inactive) throughout. In addition, the GI50 in the assay on U-251, in the assay on SNB-19, with OVCAR-4, in the assay with NCI-H522, in the assay on HT-29 and in the assay with SK-MEL-5 was > 100 µM (inactive) in each case.

On to `O=C1OCCC1(Cc1ccc(Cl)cc1)Cc1ccc(Cl)cc1`, for which the GI50 in the assay on NCI-H226 is > 100 µM (inactive); in the assay with NCI-H23, 53.2 µM (inactive); with HOP-92, 30.3 µM (inactive); in the assay with K562 it was > 100 µM (inactive); with SR, > 100 µM (inactive); in the assay with HCT-116, > 100 µM (inactive). In addition, the GI50 in the assay with Malme-3M, in the assay with SK-MEL-28, in the assay with M14, in the assay on ACHN, in the assay with SN12C and in the assay on UACC-257 was > 100 µM (inactive) throughout. In addition, the GI50 in the assay with SF-268 was > 100 µM (inactive); in the assay on U-251, 52.1 µM (inactive); in the assay on SNB-19 it was 30 µM (inactive); in the assay on OVCAR-4 it was 36.2 µM (inactive); in the assay with NCI-H522, > 100 µM (inactive); with HT-29 it was > 100 µM (inactive).

As to `CP1(=O)CCCCC1`, the GI50 in the assay on NCI-H226, in the assay on NCI-H23, in the assay with HOP-92, in the assay with K562, in the assay with SR and in the assay on HCT-116 was > 100 µM (inactive) each time. The GI50 with Malme-3M, in the assay on SK-MEL-28, with M14, with ACHN, in the assay on SN12C and in the assay on UACC-257 was > 100 µM (inactive) throughout. For the same molecule, the GI50 in the assay with SF-268, in the assay on U-251, in the assay on SNB-19, with OVCAR-4, with HT-29 and in the assay with SK-MEL-5 was > 100 µM (inactive) throughout.

For `OCC(O)C(O)C(O)c1nn(-c2ccccc2)c2nc3cc(Cl)c(Cl)cc3nc12` (stereo not drawn), the GI50 was 36.5 µM (inactive) in the assay with NCI-H226; 49.8 µM (inactive) in the assay with NCI-H23; 18.6 µM (inactive) in the assay with K562; 33.9 µM (inactive) in the assay on SR; 54.5 µM (inactive) with HCT-116; 19.3 µM (inactive) with Malme-3M. For the same molecule, the GI50 in the assay on SK-MEL-28 was 48 µM (inactive); in the assay on M14 it was 17.7 µM (inactive); in the assay on ACHN, 25.1 µM (inactive); in the assay on SN12C it was 41.9 µM (inactive); in the assay with UACC-257 it was 63.1 µM (inactive); in the assay on SF-268, 55.1 µM (inactive). The GI50 with U-251 was 70.5 µM (inactive); in the assay with SNB-19, 74.6 µM (inactive); in the assay with OVCAR-4 it was 35.6 µM (inactive); in the assay on NCI-H522 it was 27.5 µM (inactive); in the assay with HT-29, 24.4 µM (inactive).
